Experimental data published in PMC11851449, “Blm10-Based Compounds Add to the Knowledge of How Allosteric Modulators Influence Human 20S Proteasome” (ACS Chemical Biology, 2025).

Assays:
human 20S proteasome [1] = tested on: T1, human 20S proteasome; assay: C-L peptidase activity of latent h20S probed with Z-LLE-AMC; assay type: biochemical; settings: 10 μM bortezomib
T1 construct: 20S proteasome was isolated from human erythrocytes; from tissue; host or cells: human erythrocytes
Description: (§1) The capacity of influencing the human 20S proteasome was examined using the latent enzyme isolated from human erythrocytes. Boc-LRR-AMC, Z-LLE-AMC, and Suc-LLVY-AMC fluorogenic substrates (Enzo Life Sciences Inc.) were used for assessment of the trypsin-, caspase-, and chymotrypsin-like activities, respectively. As an additional probe, we utilized a homemade FRET-type substrate DabEDS (Lys(Dabcyl)-[…]EDANS)-Gly[36]). Stock solutions of the substrates and modulators were prepared in dimethyl sulfoxide (DMSO). […] The activity assays were performed in a 96-well plate format in 50 mM Tris/HCl, pH 8.0. The CP was used at a final concentration of 0.002 mg mL^–1 (2.8 nM). The final concentrations of LLVY, LRR, and LLE substrates were 100 μM and DabEDS 15 μM. The concentration of reagents in the tests with inhibitors was as follows: 10 μM bortezomib (tebu-bio), 50 μM leupeptin (Roth), and 10 μM activators. The release of the aminomethylcoumarin (AMC) reporter group was followed by monitoring the fluorescence emission at 460 nm (λex was 380 nm). DabEDS hydrolysis was detected by measuring the emission at 493 nm, while the excitation wavelength was set at 335 nm. Fluorescence measurements were carried out using an Infinite M200 Pro plate reader (Tecan), every 2 min for up to 60 min at 37 °C. All activity assays were performed in at least three independent replicates.

human 20S proteasome [2] = tested on: T1, human 20S proteasome; assay: ChT-L peptidase activity of latent h20S probed with Suc-LLVY-AMC; assay type: biochemical; settings: 10 μM bortezomib, Suc-LLVY-AMC 100 μM; activators could not overcome the inhibition
Description: as §1

CC(C)C[C@H](NC(=O)[C@H](Cc1ccccc1)NC(=O)c1cnccn1)B(O)O [bortezomib]
inhibition of h20S C-L activity (in words) (human 20S proteasome [1]): completely blocked the activity of the ChT-L and C-L | inhibition of h20S ChT-L activity (in words) (human 20S proteasome [2]): complete loss of proteasome activity
